Experiments:
Format in all cases: cell-based
Bacillus cereus = test: Agar plate disc-diffusion, antibacterial, Bacillus cereus; conditions: Gram positive
Protocol: (§1) The agar plate disc-diffusion method was applied. […] The discs were then placed onto the surface of agar plates (nutrient agar for bacteria and Sabouraud's dextrose agar for fungi) seeded with the test organism. Each plate contained 15 mL of the agar medium, previously seeded with 0.2 mL of the broth culture of each organism pregrown for 18 hours. The plates were incubated at 37° C. for 48 hours and 72 hours for fungi. The inhibition zones were measured in mm. Discs impregnated with DMSO were used as a control, and their inhibition zone was subtracted from the tested compound's actual inhibition zone.

Escherichia coli = test: Agar plate disc-diffusion, antibacterial, Escherichia coli; conditions: Gram negative
Protocol: as §1

Pseudomonas aeruginosa = test: Agar plate disc-diffusion, antibacterial, Pseudomonas aeruginosa; conditions: Gram negative
Protocol: as §1

[1] = tested on: Chrysosporium keratinophilum; test: Agar plate disc-diffusion, antifungal, Chrysosporium keratinophilum; conditions: Fungal
Protocol: as §1

Staphylococcus aureus = test: Agar plate disc-diffusion, antibacterial, Staphylococcus aureus; conditions: Gram positive
Protocol: as §1

Aspergillus flavus = test: Agar plate disc-diffusion, antifungal, Aspergillus flavus; conditions: Fungal
Protocol: as §1

[2] = A = concentration of comp. = 10,000 μL
[3] = B = concentration of comp. = 30,000 μL
[4] = C = concentration of comp. = 50,000 μL

## N/C(=N\OC(=O)CSc1nnc(-c2ccc(Cl)cc2)o1)c1cccc2ccccc12 [compound 3, N′-(2-(5-(4-chlorophenyl)-1,3,4-oxadiazol-2-ylthio)acetoxy)-1-naphthimidamide]
Bacillus cereus; [2]
  inhibition zone, Bacillus Cereus, A: 22 mm
Bacillus cereus; [3]
  inhibition zone, Bacillus Cereus, B: 25 mm
Bacillus cereus; [4]
  inhibition zone, Bacillus Cereus, C: 34 mm
Escherichia coli; [2]
  inhibition zone, Escherichia coli, A: 26 mm
Escherichia coli; [3]
  inhibition zone, Escherichia coli, B: 32 mm
Escherichia coli; [4]
  inhibition zone, Escherichia coli, C: 50 mm
Pseudomonas aeruginosa; [2]
  inhibition zone, Pseudomonas aeruginosa, A: 26 mm
Pseudomonas aeruginosa; [3]
  inhibition zone, Pseudomonas aeruginosa, B: 28 mm
Pseudomonas aeruginosa; [4]
  inhibition zone, Pseudomonas aeruginosa, C: 45 mm
[1]; [2]
  inhibition zone, Chrysosporium keratinophilum, A: 22 mm
[1]; [3]
  inhibition zone, Chrysosporium keratinophilum, B: 28 mm
[1]; [4]
  inhibition zone, Chrysosporium keratinophilum, C: 39 mm
Staphylococcus aureus; [2]
  inhibition zone, Staphylococcus aureus, A: 27 mm
Staphylococcus aureus; [3]
  inhibition zone, Staphylococcus aureus, B: 30 mm
Staphylococcus aureus; [4]
  inhibition zone, Staphylococcus aureus, C: 38 mm
Aspergillus flavus; [2]
  inhibition zone, Aspergillus flavus, A: 24 mm
Aspergillus flavus; [3]
  inhibition zone, Aspergillus flavus, B: 27 mm
Aspergillus flavus; [4]
  inhibition zone, Aspergillus flavus, C: 36 mm

— patent US11999707B1, “N′-(2-(5-(4-chlorophenyl)-1,3,4-oxadiazol-2-ylthio)acetoxy)-1-naphthimidamide as an antimicrobial compound” (KING FAISAL UNIVERSITY, priority 2023, dated 2024)
